According to patent US11173126B2, “Nanoalum particles comprising a PAA sizing agent” (priority 2016, dated 2021):

Columns and labels:
[1] = Particle size (Z-ave) and polydispersity by dynamic light scattering; assay type: physicochemical; conditions: single non-pegylated phospholipid included during milling; data not shown
C57Bl/6 mice = conditions: mouse, in vivo
C57/BL6 mice = conditions: mouse, in vivo

Compound | effectiveness as sizing agent (aggregation of alum) [1] | ID97-specific CD4+ T cell response (CD154, IFN-γ, TNF, IL-2) (C57Bl/6 mice) | luciferase expression from RNA replicon (C57/BL6 mice)
CCCCCCCCCCCCCC(=O)OC[C@H](COP(=O)(O)OCCN)OC(=O)CCCCCCCCCCCCC [DMPE] | not found to be effective sizing agents | – | –
Distearoylglycerophosphoethanolamine [DSPE] | not found to be effective sizing agents | – | –
Poly(acrylic acid) [PAA] | – | low frequency | does not deliver and/or induce an expressible level
